Laboratory results as given in patent EP0861891A1, “Compounds for modulating cell negative regulations and biological applications thereof” (INSTITUT NATIONAL DE LA SANTE ET DE LA RECHERCHE MEDICALE …, priority 1996, dated 1998).
Where a SMILES comes first, the peptide text is derived from it.

Biological target: T1, GST-SHP-1.SH2(C) (Mus musculus, UniProt P29351)
T1 construct: recombinant fusion proteins corresponding to the isolated N- and C-SH2 domains of SHP-1; made in house; host or cells: E. coli DH5α
T1 sequence (P29351 110-213 limits assumed): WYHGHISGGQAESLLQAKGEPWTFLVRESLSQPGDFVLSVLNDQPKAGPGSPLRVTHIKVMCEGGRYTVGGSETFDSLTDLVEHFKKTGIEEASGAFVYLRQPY
Experiment: Surface plasmon resonance, binding of phosphorylated KIR ITIM peptides to SHP-1 C-SH2 domain
Design: species or system murine
Settings: calculated from koff/kon
Procedure: Fusion proteins and surface plasmon resonance analysis. Surface plasmon resonance (SPR) measurements were performed on a BIAcore™ (Pharmacia). The GST-SHP-1.SH2(NC), GST-SHP-1.SH2(N), GST-SHP-1.SH2(C), GST-SHIP.SH2 fusion proteins generated from the murine phosphatase cDNA, were purified from DH5α lysates. Briefly, overnight culture at 37°C in LB medium containing 50 µg/ml ampicillin was diluted 1/10 in fresh medium, and incubated until the absorbance at 600 nm reaches 1-2. At that point, IPTG was added (1mM), and incubation continued for an additional 4 hours at 37°C. […] Protein purity was assessed by 12.5 % SDS-PAGE, and Coomassie blue staining. […] Then, biotinylated peptides were injected, and their binding to streptavidine-coated microchips was assessed using anti-phosphotyrosine 4G10 mAb (UBI).
The measurement of phosphorylated p58.2 peptide binding to GST-SHP-1.SH2(N) and GST-SHP-1.SH2(C) fusion proteins was at a constant 5 µl/min flow rate. […] Results are expressed as corrected resonance units (CRU) corresponding to the raw RU values subtracted from background RU value due to the injection medium. In this representative experiment, 130 RU of p58.2.1 peptide and 160 RU of p58.2.2 peptide were immobilized on microchips. koff and kon were calculated from three independent measurements using the BIAevaluation 2.0 software. Kd was calculated from koff/kon.

For `CC[C@H](C)[C@H](NC(=O)[C@H](CC(=O)O)NC(=O)[C@@H](NC(=O)[C@@H]1CCCN1C(=O)[C@@H]1CCCN1C(=O)[C@@H](NC(=O)[C@H](CCCCN)NC(=O)[C@@H]1CCCN1C(=O)[C@H](CCCNC(=N)N)NC(=O)[C@H](CCC(N)=O)NC(=O)[C@H](CO)NC(=O)[C@@H]1CCCN1C(=O)[C@H](CCCNC(=N)N)NC(=O)CCCC[C@@H]1SC[C@@H]2NC(=O)N[C@@H]21)[C@@H](C)O)[C@@H](C)O)C(=O)N[C@H](C(=O)N[C@H](C(=O)N[C@@H](Cc1ccc(OP(=O)(O)O)cc1)C(=O)N[C@H](C(=O)N[C@@H](CCC(=O)O)C(=O)N[C@@H](CC(C)C)C(=O)N1CCC[C@H]1C(=O)N[C@@H](CC(N)=O)C(=O)N[C@@H](C)C(=O)N[C@@H](CCC(=O)O)C(=O)N1CCC[C@H]1C(=O)O)[C@@H](C)O)C(C)C)[C@@H](C)CC` [p58.2.2, RPSQRPKTPPTDIIVY333TELPNAEP] (HELM PEPTIDE1{[O=C1N[C@H]2[C@H](CS[C@H]2CCCCC(=O)[*:2])N1].R.P.S.Q.R.P.K.T.P.P.T.D.I.I.V.[O=C([C@H](Cc1ccc(OP(=O)(O)O)cc1)N[*:1])[*:2]].T.E.L.P.N.A.E.P}$$$$V2.0), the Kd was 545 nM.
